Measured values reported in paper PMC3834762 (British Journal of Pharmacology, 2013).
Positions count from the first letter of the chain named.

Legend:
Assay type in all cases: cell-based
5‐HT3A receptors = biological target: T1, 5‐HT3A receptors (Homo sapiens, UniProt P46098); assay: two‐electrode voltage clamp, wild type 5‐HT3A receptors in Xenopus oocytes
T1 sequence (P46098 24-478): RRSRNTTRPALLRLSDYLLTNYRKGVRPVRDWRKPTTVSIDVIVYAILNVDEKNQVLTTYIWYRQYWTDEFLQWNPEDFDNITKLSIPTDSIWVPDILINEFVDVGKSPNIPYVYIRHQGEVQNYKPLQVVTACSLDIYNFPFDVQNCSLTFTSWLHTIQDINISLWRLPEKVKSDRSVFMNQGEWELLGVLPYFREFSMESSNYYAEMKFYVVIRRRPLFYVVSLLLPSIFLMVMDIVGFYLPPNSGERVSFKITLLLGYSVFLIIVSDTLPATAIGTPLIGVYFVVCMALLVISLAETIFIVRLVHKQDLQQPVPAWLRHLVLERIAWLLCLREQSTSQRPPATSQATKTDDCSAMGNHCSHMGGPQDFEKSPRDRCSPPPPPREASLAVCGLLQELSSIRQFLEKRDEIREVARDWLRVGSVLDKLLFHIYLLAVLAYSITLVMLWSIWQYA

5‐HT3AB receptors = biological target: T2, 5‐HT3AB receptors (Homo sapiens, UniProt O95264+P46098); assay: two‐electrode voltage clamp, wild type 5‐HT3AB receptors in Xenopus oocytes
T2 sequence (P46098 24-478): T1 sequence (P46098 24-478)
T2 sequence (O95264 22-441): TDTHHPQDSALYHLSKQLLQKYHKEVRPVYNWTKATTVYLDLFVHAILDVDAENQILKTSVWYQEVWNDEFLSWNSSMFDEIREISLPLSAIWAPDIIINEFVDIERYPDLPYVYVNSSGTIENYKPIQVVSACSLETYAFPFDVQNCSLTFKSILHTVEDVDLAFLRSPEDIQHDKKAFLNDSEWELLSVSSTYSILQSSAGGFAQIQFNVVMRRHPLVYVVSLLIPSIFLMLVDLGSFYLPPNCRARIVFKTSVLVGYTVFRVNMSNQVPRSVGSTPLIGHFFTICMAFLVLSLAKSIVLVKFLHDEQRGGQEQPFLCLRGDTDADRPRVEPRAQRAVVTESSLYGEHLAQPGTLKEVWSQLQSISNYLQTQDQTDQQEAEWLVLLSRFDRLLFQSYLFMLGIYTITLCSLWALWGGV

5‐HT3AT6'SB receptors = biological target: T3, 5‐HT3AT6'SB receptors (Homo sapiens, UniProt O95264+P46098, T279S); assay: two‐electrode voltage clamp, 5‐HT3AT6'SB mutant receptors in Xenopus oocytes; conditions: maximal current amplitude for the test ligand compared to 5‐HT
T3 sequence (P46098 24-478 T279S): T1 sequence (P46098 24-478) with T256S
T3 sequence (O95264 22-441): T2 sequence (O95264 22-441)

5‐HT3AT6'S receptors = biological target: T4, 5‐HT3AT6'S receptors (Homo sapiens, UniProt P46098, T279S); assay: two‐electrode voltage clamp, 5‐HT3AT6'S mutant receptors in Xenopus oocytes; conditions: maximal current amplitude for the test ligand compared to 5‐HT
T4 sequence (P46098 24-478 T279S): T1 sequence (P46098 24-478) with T256S

long‐lived inhibition of subsequent agonist responses (5‐HT3A receptors; wild type 5‐HT3A and 5‐HT3AB receptors): > 20 min
Rmax (5‐HT3AT6'SB receptors): 1.2
Rmax (5‐HT3AT6'S receptors): 0.9
Structure (SMILES): c1ccc2nc(N3CCNCC3)ccc2c1 [Quipazine]
agonist response (5‐HT3A receptors; 5‐HT3A): too small to accurately determine functional parameters
agonist response (5‐HT3AB receptors): too small to accurately determine functional parameters
